Measurements reported in patent US7892755B2, “Screening method” (Takeda Pharmaceutical Company Limited, priority 2004, dated 2011).

Experiments:
control CHO-K1 cells = assay: Changes in intracellular calcium levels on FLIPR, control CHO-K1 cells with only expression vector pAKKO-111H; assay type: cell-based
Protocol: The CHO-K1 cell line (purchased from ATCC) was incubated in HAM F-12 medium (Invitrogen) supplemented with 10% fetal calf serum, unless otherwise indicated. On the day before transfection, the cells were inoculated at 4.5×10^5/10 cm^2 and incubated at 37° C. for 15 hours or more in a CO2 incubator adjusted to 5% CO2 concentration. Using Lipofectamine reagent (Invitrogen), transfection was performed according to modifications of the procedure attached to the reagent. When a 6-well plate was used as the incubator, the transfection was performed as follows. Two tubes each having a 1.5 ml volume were prepared and 100 μl each of Opti-MEM medium (Invitrogen) was dispensed in each tube. Next, 1 μg of the GPR35 expression vector obtained in REFERENCE EXAMPLE 1 and 0.5 μg of Gα15 expression vector (Guthrie cDNA Resource Center) were incorporated into one tube and in another tube, 6 μl of Lipofectamine reagent was charged, which were then mixed together. The mixture was settled for 20 minutes at room temperature. To the solution, 800 μl of Opti-MEM medium was added and the resulting solution mixture for transfection was added to the CHO-K1 cells, which had been previously washed with Opti-MEM medium. The cells were then incubated in a CO2 incubator for 6 hours. After the incubation, the cells were rinsed with PBS (Invitrogen), then detached by 0.05% trypsin-EDTA solution (Invitrogen) and recovered by centrifugal operation. The cells obtained were counted and diluted to 5×10^4 cells per 100 μl of the medium. The dilution was dispensed to a black walled 96-well plate (Costar) at 100 μl per well, followed by incubation overnight in a CO2 incubator. Various test samples were added to the CHO-K1 cells, in which the receptor was transiently expressed, by the transfection procedure described above, whereby changes in intracellular calcium levels were assayed on a FLIPR (Molecular Device).
To assay the changes in intracellular calcium levels on FLIPR, the following pretreatment was made. First, an assay buffer was prepared to add fluorescence dye Fluo-3AM (DOJIN) to the cells, or to wash the cells immediately before the FLIPR assay. A solution was prepared by adding 20 ml of 1M HEPES (pH 7.4) (DOJIN) to 1000 ml of HBSS (Invitrogen) (hereinafter HBSS/HEPES solution). To the solution, there was added 10 ml of a solution obtained by dissolving 710 mg of Probenecid (Sigma) in 5 ml of 1N NaOH and further adding 5 ml of HBSS/HEPES solution thereto and mixing them. The resulting solution was used as an assay buffer. Next, 50 μg of Fluo-3AM was dissolved in 21 μl of DMSO (DOJIN), and an equal volume of 20% pluronic acid (Molecular Probes) was added to the solution. After mixing them, the mixture was added to 10.6 ml of an assay buffer supplemented with 105 μl of fetal calf serum to give a fluorescence dye solution. After the medium for the transfected CHO-K1 cells was removed, the fluorescence dye solution was immediately dispensed at 100 μl each per well and incubation was carried out in a CO2 incubator for an hour to take up the fluorescence dye into the cells. The incubated cells were washed with the assay buffer described above and set on FLIPR. Test samples to be added to the receptor-expressed CHO-K1 cells were prepared using the assay buffer and simultaneously set on FLIPR.
After the pretreatment described above was made, changes in intracellular calcium levels by the addition of various test samples were assayed on FLIPR. […]

GPR35 = GPR35 (Homo sapiens, UniProt Q9HC97, S294R); assay: MAPK phosphorylation (western blot, phospho-p44/42 MAP kinase) in human GPR35-expressed CHO cells; assay type: cell-based; parameters: The resulting fragment (ca. 1 kb) was introduced into vector pAKKO-111; expressed in transfected cells; settings: stimulation with 1-5 μM, 5 minutes
Chain of GPR35 (Q9HC97 whole entry S294R, the tested form may be a part): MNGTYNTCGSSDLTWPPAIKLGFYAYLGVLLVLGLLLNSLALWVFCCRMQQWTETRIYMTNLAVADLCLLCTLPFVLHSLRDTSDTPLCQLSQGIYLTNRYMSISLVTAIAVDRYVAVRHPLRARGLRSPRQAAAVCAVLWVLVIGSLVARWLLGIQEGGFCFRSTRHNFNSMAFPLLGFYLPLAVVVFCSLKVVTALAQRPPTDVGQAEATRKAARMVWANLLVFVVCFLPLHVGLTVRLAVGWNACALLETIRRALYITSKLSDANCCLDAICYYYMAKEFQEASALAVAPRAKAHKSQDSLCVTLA
Protocol: The human GPR35-expressed CHO cells prepared in REFERENCE EXAMPLE 1 were incubated for 48 hours in a 12-well plate at 5×10^4 cells/well. MEMα (containing no nucleic acid) supplemented with 10% dialyzed FBS was used as a medium. After the medium was removed by suction, the cells were washed with 1 ml (×2) of serum-free medium and 500 μl of the serum-free medium was added thereto, followed by incubation at 37° C. for 16 hours. DNQX or NBQX was added to the cells at its optimum concentration, followed by incubation at 37° C. for 5 minutes. Immediately after the medium was removed by suction, 50 μl of Blue Loading Buffer (BioLabs) was added, the cells were lysed and taken up by pipetting. The cell lysate was destructed using a sonicator (Sono Cleaner; KAIJO DENKI) and then heat-treated at 95° C. for 5 minutes. Centrifugation (15,000 rpm, 4° C., 5 minutes) was made and the supernatant was used as a final sample.
After 10 μl of the sample was electrophoresed on 10% SDS-PAGE, the sample was transferred to a PVDF membrane by western blotting. The membrane was immersed in Block Ace (manufactured by Dainippon Pharmaceutical Co., Ltd.) and then shaken for an hour at room temperature. […] The membrane was applied to a fluorescence detector (LAS-1000; FUJI FILM) in accordance with the protocol of ECLplus Western Blotting System (Amersham Biosciences). […]

| Structure (SMILES) | response (increased intracellular calcium levels) in control cells (control CHO-K1 cells) | level of phosphorylated MAP-kinase (GPR35) |
| --- | --- | --- |
| O=C1N=c2cc([N+](=O)[O-])c([N+](=O)[O-])cc2=NC1=O [DNQX, 6,7-dinitroquinoxaline-2,3-dione] | not observed | enhanced |
| NS(=O)(=O)c1cccc2c3c(cc([N+](=O)[O-])c12)=NC(=O)C(=O)N=3 [NBQX, 6-nitro-7-sulfamoylbenzo[f]quinoxaline-2,3-dione] | not observed | enhanced |
